SMILES strings stand for the structures.

The test system of data set [1] is tumor necrosis factor (α). Briefly: Cytokine Induction in Human Cells: tumor necrosis factor (α) by ELISA. The settings on record: PBMC; human PBMCs, incubated 18 to 24 hours, lowest concentration found to induce tumor necrosis factor. It is filed as cell-based. The gist of the method:
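Healthy-donor PBMCs (1.5–2×10^6 cells/mL final, RPMI with 10% FBS) incubated 18–24 h at 37 °C with compound in three- or ten-fold serial dilutions, DMSO ≤1% final. Supernatant TNF measured by ELISA; value is lowest concentration inducing TNF.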
(In general: In an ELISA, binding on a coated surface is turned into a signal by an enzyme label.)

For a further data set, the system named is interferon (α). In words: Cytokine Induction in Human Cells: interferon (α) by ELISA. It is filed as cell-based. The settings on record: PBMC; human PBMCs, incubated 18 to 24 hours, lowest concentration found to induce interferon. The gist of the method:
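Healthy-donor human PBMCs (1.5–2×10^6 cells/mL final, RPMI with 10% FBS) exposed to serially diluted compound (≤1% DMSO) for 18–24 h at 37 °C, 5% CO2. Supernatant IFN-α measured by ELISA; value reported is lowest concentration inducing interferon.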

For `COCCc1nc2c(N)nc3ccccc3c2n1CCCNC(=S)NC1CCCCC1` [Example 157, N-{3-[4-amino-2-(2-methoxyethyl)-1H-imidazo[4,5-c]quinolin-1-yl]propyl}-N′-cyclohexylthiourea], the melting point is 199 to 200 °C. The compound also had a minimal effective concentration in data set [1] of 1.11 µM. The minimal effective concentration in the data set with interferon (α) turned out to be 0.37 µM.

In the case of `CCOCc1nc2c(N)nc3ccccc3c2n1CCNC(=O)OC(C)(C)C` [Example 177, tert-butyl 2-[4-amino-2-(ethoxymethyl)-1H-imidazo[4,5-c]quinolin-1-yl]ethylcarbamate], the melting point lay within 201 to 202 °C. The compound further gave a minimal effective concentration in data set [1] of 0.37 µM. In the data set on interferon (α), the minimal effective concentration was 0.04 µM.

Consider `CCCCCc1nc2c(N)nc3ccccc3c2n1CCCCNC(=O)Nc1ccccc1` [Example 159, N-[4(4-amino-2-pentyl-1H-imidazo[4,5-c]quinolin-1-yl)butyl]-N′-phenylurea], for which the melting point was 159 to 160.4 °C. This compound registered a minimal effective concentration in data set [1] of 10 µM. Also, the minimal effective concentration in the data set on interferon (α) turned out to be 1.11 µM.

`CC(C)(C)OC(=O)NCCCn1c(CCCOc2ccccc2)nc2c(N)nc3ccccc3c21` [Example 174, tert-butyl 3-[4-amino-2-(3-phenoxypropyl)-1H-imidazo[4,5-c]quinolin-1-yl]propylcarbamate]: the melting point fell in the range of 151 to 153 °C. The same compound yielded a minimal effective concentration in data set [1] of more than 30 µM. The same compound registered a minimal effective concentration with interferon (α) of more than 30 µM.

`CCCc1nc2c(N)nc3ccccc3c2n1CCCCNC(=O)Nc1ccccc1` [Example 160, N-[4-(4-amino-2-propyl-1H-imidazo[4,5-c]quinolin-1-yl)butyl]-N′-phenylurea] registered a melting point of 182.8 to 184 °C. In data set [1], this compound yielded a minimal effective concentration of 1.11 µM. Further, the minimal effective concentration with interferon (α) was found to be 0.12 µM.

With `CCOCc1nc2c(N)nc3ccccc3c2n1CCCNC(=O)OC(C)(C)C` [Example 175, tert-butyl 3-[4-amino-2-(ethoxymethyl)-1H-imidazo[4,5-c]quinolin-1-yl]propylcarbamate], the melting point fell in the range of 124 to 126 °C. In data set [1], this compound yielded a minimal effective concentration of 0.37 µM. The same compound registered a minimal effective concentration with interferon (α) of 0.04 µM.

`Cc1nc2c(N)nc3c(c2n1CCCCNC(=O)N1CCOCC1)CCCC3` [Example 170, N-[4-(4-amino-2-methyl-6,7,8,9-tetrahydro-1H-imidazo[4,5-c]quinolin-1-yl)butyl]morpholine-4-carboxamide] showed a melting point of 133.6 to 134.6 °C. Besides, the minimal effective concentration in data set [1] is 10 µM. Besides, in the data set with interferon (α), the minimal effective concentration is 0.12 µM.

Take `CC(C)(C)OC(=O)NCCCn1cnc2c(N)nc3ccccc3c21` [Example 173, tert-butyl 3-(4-amino-1H-imidazo[4,5-c]quinolin-1-yl)propylcarbamate]: the melting point is 196 to 198 °C. In data set [1], this compound registered a minimal effective concentration of 10 µM. Besides, in the data set with interferon (α), the minimal effective concentration was found to be 1.11 µM.

Take `CC(C)(C)OC(=O)NCCn1cnc2c(N)nc3ccccc3c21` [Example 1, Tert-Butyl N-[2-(4-Amino-1H-imidazo[4,5-c]quinolin-1-yl)ethyl]carbamate]: the melting point is 215 °C. The same compound returned a minimal effective concentration in data set [1] of 30 µM. For the same compound, the minimal effective concentration with interferon (α) came out at 3.33 µM.

Regarding `CCc1nc2c(N)nc3ccccc3c2n1CCCCNC(=O)Nc1ccccc1` [Example 143, N-[4-(4-amino-2-ethyl-1H-imidazo[4,5-c]quinolin-1-yl)butyl]-N′-phenylurea], the melting point lay within 179.7 to 181.4 °C. Moreover, the minimal effective concentration in data set [1] was 0.37 µM. Moreover, the minimal effective concentration in the data set on interferon (α) turned out to be 0.01 µM.

`COCCc1nc2c(N)nc3ccccc3c2n1CCCNC(=O)OC(C)(C)C` [Example 148, tert-butyl 3-[4-amino-2-(2-methoxyethyl)-1H-imidazo[4,5-c]quinolin-1-yl]propylcarbamate] registered a melting point of 174.2 to 175.8 °C. In data set [1], this compound yielded a minimal effective concentration of 0.04 µM. The same compound displayed a minimal effective concentration in the data set on interferon (α) of 0.04 µM.

In the case of `CCCCc1nc2c(N)nc3ccccc3c2n1CCCNC(=O)NC1CCCCC1` [Example 153, N-[3-(4-amino-2-butyl-1H-imidazo[4,5-c]quinolin-1-yl)propyl]-N′-cyclohexylurea], the melting point lay in the range of 200 to 201 °C. The same compound came in with a minimal effective concentration in data set [1] of 0.12 µM. In the data set on interferon (α), this compound showed a minimal effective concentration of 0.01 µM.

Take `CCCCc1nc2c(N)nc3ccccc3c2n1CCCCNC(=O)Nc1ccccc1` [Example 164, N-[4-(4-amino-2-butyl-1H-imidazo[4,5-c]quinolin-1-yl)butyl]-N′-phenylurea]: the melting point lay within 185 to 187 °C. Further, in data set [1], the minimal effective concentration was determined as 0.12 µM. This compound gave a minimal effective concentration in the data set with interferon (α) of 0.04 µM.

In turn, `CC(C)(C)OC(=O)NCCCCn1cnc2c(N)nc3ccccc3c21` [Example 2] returned a melting point of 171 to 173 °C. Further, in data set [1], the minimal effective concentration was found to be 3.33 µM. Further, in the data set on interferon (α), the minimal effective concentration was found to be 0.37 µM.

Regarding `Cc1nc2c(N)nc3ccccc3c2n1CCCCNC(=O)Nc1ccccc1` [Example 144, N-[4-(4-amino-2-methyl-1H-imidazo[4,5-c]quinolin-1-yl)butyl]-N′-phenylurea], the melting point was 171.5 to 172.5 °C. The minimal effective concentration in data set [1] stood at 0.37 µM. The compound also came in with a minimal effective concentration with interferon (α) of 0.04 µM.

`CCCCc1nc2c(N)nc3ccccc3c2n1CCCNC(=O)N1CCOCC1` [Example 151, N-[3-(4-amino-2-butyl-1H-imidazo[4,5-c]quinolin-1-yl)propyl]morpholine-4-carboxamide] yielded a melting point of 193.4 to 194.6 °C. In data set [1], this compound came in with a minimal effective concentration of 0.01 µM. The minimal effective concentration with interferon (α) was found to be 0.01 µM.

`CCCCNC(=O)NCCCn1c(CCCC)nc2c(N)nc3ccccc3c21` [Example 150, N-[3-(4-amino-2-butyl-1H-imidazo[4,5-c]quinolin-1-yl)propyl]-N′-butylurea] displayed a melting point of 185.5 to 186.4 °C. In data set [1], this compound gave a minimal effective concentration of 0.37 µM. In the data set on interferon (α), this compound gave a minimal effective concentration of 0.04 µM.

Compound `CCCCc1nc2c(N)nc3ccccc3c2n1CCCNC(=S)Nc1ccccc1` [Example 149, N-[3-(4-amino-2-butyl-1H-imidazo[4,5-c]quinolin-1-yl)propyl]-N′-phenylthiourea] had a melting point of 142.8 to 144 °C. In data set [1], this compound gave a minimal effective concentration of 0.37 µM. The minimal effective concentration in the data set with interferon (α) worked out at 0.04 µM.

In the case of `CCCCNC(=O)NCCCn1c(CCOC)nc2c(N)nc3ccccc3c21` [Example 162, N-{3-[4-amino-2-(2-methoxyethyl)-1H-imidazo[4,5-c]quinolin-1-yl]propyl}-N′-butylurea], the melting point lay within 159 to 160 °C. The compound further registered a minimal effective concentration in data set [1] of 0.04 µM. For the same compound, in the data set with interferon (α), the minimal effective concentration was found to be 0.01 µM.

As for `COCCc1nc2c(N)nc3ccccc3c2n1CCCNC(=O)NC1CCCCC1` [Example 158, N-{3-[4-amino-2-(2-methoxyethyl)-1H-imidazo[4,5-c]quinolin-1-yl]propyl}-N′-cyclohexylurea], the melting point was in the range of 179 to 180 °C. Also, in data set [1], the minimal effective concentration was 1.11 µM. Also, in the data set on interferon (α), the minimal effective concentration turned out to be 0.01 µM.

Compound `CCCCc1nc2c(N)nc3ccccc3c2n1CCCNC(=S)NCCC` [Example 152, N-[3-(4-amino-2-butyl-1H-imidazo[4,5-c]quinolin-1-yl)propyl]-N′-propylthiourea] returned a melting point of 144.5 to 145.5 °C. The minimal effective concentration in data set [1] was 0.04 µM. In the data set with interferon (α), this compound displayed a minimal effective concentration of 0.04 µM.

Compound `COCCc1nc2c(N)nc3ccccc3c2n1CCCNC(=O)N1CCOCC1` [Example 163, N-{3-[4-amino-2-(2-methoxyethyl)-1H-imidazo[4,5-c]quinolin-1-yl]propyl}morpholine-4-carboxamide] registered a melting point of 194 to 196 °C. The minimal effective concentration in data set [1] came out at 0.01 µM. In the data set with interferon (α), this compound had a minimal effective concentration of 0.01 µM.

One may read the minimal effective concentration as the smallest amount tested that counted as effective. The low end stands for greater potency, the high end for weaker potency. Broadly, the melting point is the temperature of the solid-liquid transition.
